We go through 4 compounds from patent US12343428B2, “Compositions and methods for cancer treatment” (University of Virginia Patent Foundation, priority 2017, dated 2025).

In assay [1] the test system is UNC-10 HNSCC cells. Put plainly: MTS cell viability assay, UNC-10 HNSCC cells. In kind it is cell-based, human. The procedure: (§1) To evaluate cell viability in HNSCC cell lines after drug exposure, 5,000 cells were plated in 96-well plates. After 16-30 hours, cells were exposed to each drug alone or in combination, and viability was measured every 24 hours for a total of 48 hours. Viability was assayed using a […] 96® brand AQueous Non-Radioactive Cell Proliferation MTS Assay (Promega Corporation) according to manufacturer's instructions. A minimum of three biologically independent experiments were performed. Results were normalized to the respective negative controls of each experiment.
(§2) To evaluate cell viability of HNSCC cell lines after exposure to various amounts of Erlotinib, 5,000 UNC-10 or SCC-25 cells were plated in 96-well plates. After 16-30 hours, cells were exposed to each Erlotinib at 0 μM, 0.5 μM, 1 μM, 5 μM, 10 μM, and 25 μM, and viability was measured at 24 and 48 hours. Viability was assayed using MTS assay (Promega […] 96® AQueous Non-Radioactive Cell Proliferation Assay) according to manufacturer instructions. A minimum of three biologically independent experiments were performed. Results were normalized to the respective negative controls of each experiment.
(§3) To evaluate cell viability in HNSCC cell lines after exposure to CNLs, similar experiments were performed with five different concentrations of CNLs alone: 0 μM, 2.5 μM, 5 μM, 10 μM, 25 μM. 5,000 UNC-10 or SCC-25 cells were plated in 96-well plates. After 16-30 hours, cells were exposed to each drug alone or in combination, and viability was measured every 24 hours for a total of 48 hours. Viability was assayed using MTS assay (Promega […] 96® AQueous Non-Radioactive Cell Proliferation Assay) according to manufacturer instructions. A minimum of three biologically independent experiments were performed.
(§4) To evaluate cell viability in HNSCC cell lines after exposure to CNLs plus an EGFR inhibitor, 5,000 cells were plated in 96-well plates. After 16-30 hours, cells were exposed to six different concentrations of Erlotinib (0 μM, 0.5 μM, 1 μM, 5 μM, 10 μM, & 25 μM) combined with five different concentrations of CNLs (0 μM, 2.5 μM, 5 μM, 10 μM, & 25 μM), and viability was measured at 24 hours and 48 hours. Viability was assayed using MTS assay (Promega […] 96® AQueous Non-Radioactive Cell Proliferation Assay) according to manufacturer instructions. A minimum of three biologically independent experiments were performed. Results were normalized to the respective negative controls of each experiment.
In general terms: Tetrazolium dyes change colour on reduction, which living cells bring about.

The next assay concerns SCC-25 HNSCC cells. Put plainly: MTS cell viability assay, SCC-25 HNSCC cells. The class given is cell-based, human. Particulars: for viability at 25 µM: Homo sapiens, 48 hours. Here is the method: as §1, §2, §3, §4
The next assay relates to UNC-10 cells. Nature of the assay: Flow cytometry viability dye assay, UNC-10 cells. In kind it is cell-based. Particulars: Homo sapiens, 48 hours, 25 μM Erlotinib. The procedure:
(§5) To evaluate cell death in HNSCC cell lines exposed to CNL and/or Erlotinib or Gefitinib, a flow cytometry assay was performed. Cells were plated in 24-well plates for 16-30 hours before being pre-treated for one hour with Erlotinib or Gefitinib (0 μM, 10 μM, 25 μM) and then with CNL (0 μM, 2.5 μM, 5 μM). After 24 or 48 hours, cells were stained with a Fixable Viability Dye EFLUOR™ 780 brand a viability dye (ThermoFischer Scientific Inc.)
(§6) according to the manufacturer's recommendations. The use of this dye allowed us to differentiate between two cell populations: dead or live cells. Flow cytometry controls (alive/stained, alive/non-stained, & dead/stained) were used to allow for a more rigorous discrimination between populations. Results were normalized to the respective negative controls of each experiment. Data analysis was performed using FlowJo Software.
(§7) In order to evaluate cell death in HNSCC cell lines exposed to CNL and/or Erlotinib or Gefitinib, flow cytometry assays were also performed. Cells were plated in 24-well plates for 16-30 hours before being pre-treated for one hour with Erlotinib or Gefitinib (0 μM, 10 μM, 25 μM) and then with CNL (0 μM, 2.5 μM, 5 μM). After 24 or 48 hours, cells were stained with a viability dye (Fixable Viability Dye EFLUOR™ 780, ThermoFischer Scientific) according to the manufacturer recommendations. […]
(Flow cytometry measures light scatter and fluorescence of single cells or particles in a stream.)

The subject of the next assay is SCC-25 cells. Nature of the assay: Flow cytometry viability dye assay, SCC-25 cells. In kind it is cell-based. Particulars: Homo sapiens, 48 hours, 25 μM Erlotinib. The procedure: as §5, §6, §7
The subject of the next assay is UNC-7 HNSCC cells. Put plainly: LC-MS/MS sphingolipid profile, UNC-7. The class given is cell-based, human. Particulars: 25 μM Erlotinib, 0, 3, 6 hours. The procedure: (§8) To determine Erlotinib's effect on the sphingolipid profile in HNSCC, 500,000 cells of two different cell lines (UNC-7 & UNC-10) were plated and grown in cell culture. When these cells reached about 70% confluence, they were treated with 25 μM Erlotinib. After addition of the Erlotinib, cells were collected immediately, three hours later, or six hours later. Collected cells were lysed using 0.1× PBS and protein quantification was determined using a Pierce BCA Protein Assay (Thermo Fisher Scientific) according to the manufacturer's instructions. Cell lysates containing 250 μg of protein were then used for lipid extractions. […] The sphingolipids were then analyzed using LC-MS/MS.

In assay [2] the test system is UNC-10 HNSCC cells. Put plainly: LC-MS/MS sphingolipid profile, UNC-10. The class given is cell-based, human. Particulars: 25 μM Erlotinib, 0, 3, 6 hours. The procedure:
as §8

Assay [3] has as its system eight different HNSCC cell lines. Nature of the assay: MTS cell viability assays in eight HNSCC cell lines. In kind it is cell-based, human. Particulars: any of the cell lines, concentrations and time points. The procedure: Drugs concentrations. […] For synergistic experiments: abiraterone acetate (Selleckchem, Houston, Texas, United States of America) was used at 0.5 μM, 1 μM, 5 μM, 10 μM, 20 μM; enzalutamide (Selleckchem) at 1 μM, 5 μM, 10 μM, 20 μM, 30 μM; and CNL at 5 μM, 10 μM, 20 μM, and 30 μM. During synergy studies, each concentration of either abiraterone acetate or enzalutamide was combined with either Ghost (negative) control (nanoliposomes without the C6 ceramide—active agent) or each concentration of CNL. Respective negative controls for abiraterone acetate and enzalutamide were also used. Synergy experiments were performed in LNCaP and C4-2 cells. For synergistic studies using the HNSCC cell lines, all eight cell lines were pre-treated for one hour with either Erlotinib (Selleckchem) or Gefitinib (Sigma-Aldrich Corporation, St. Louis, Missouri, United States of America) before adding CNL. Six different concentrations of Erlotinib and Gefitinib (0 μM, 0.5 μM, 1 μM, 5 μM, 10 μM, and 25 μM) were tested against five different CNL concentrations (0 μM, 2.5 μM, 5 μM, 10 μM, and 25 μM). […]
To evaluate cell viability in HNSCC cell lines after drug exposure, 5,000 cells were plated in 96-well plates. After 16-30 hours, cells were exposed to each drug alone or in combination, and viability was measured every 24 hours for a total of 48 hours. […]

The next assay deals with LNCaP and C4-2 cells. Nature of the assay: Synergy studies of CNL with abiraterone acetate or enzalutamide (MTS, isobolograms). Particulars: two AR positive cell lines; drug alone. The class given is cell-based, human. The procedure: Viability was assayed using MTS assay (Promega […] 96® AQueous Non-Radioactive Cell Proliferation Assay) according to manufacturer instructions. […] Results were normalized to the respective negative controls of each experiment.

The next assay has as its system LNCaP cells. Nature of the assay: LC-MS/MS lipid levels in LNCaP cells. In kind it is cell-based, human. Particulars: 10 μM abiraterone acetate alone. Here is the method: Cells were plated in 6-well plates for 48 hours before being exposed to CNL 10 μM and/or Abiraterone Acetate 10 μM, as well as respective controls (Ghost liposome and Ethanol respectively). Cells were collected after 1 hour, 4 hours, 12 hours, 24 hours, and 48 hours of exposure. Cells were lysed with 0.1× PBS and protein quantification was determined using a DC™ brand Protein Assay (Bio-Rad Laboratories, Inc., Hercules, California, United States of America). The Metabolomics core at University of Virginia performed lipid extraction, LC-MS/MS injections, and data analysis.

In general, viability refers to a read-out of living cells in per cent, often relative to untreated cells. As to `C#Cc1cccc(Nc2ncnc3cc(OCCOC)c(OCCOC)cc23)c1` [Erlotinib], the “effect on cell viability” value is given as “little effect” in the assay with UNC-10 HNSCC cells [1] (Erlotinib alone 0.5-25 μM, 24 or 48 hours) and “not statistically significant” in the assay with SCC-25 HNSCC cells (Erlotinib alone, higher concentrations, 24 or 48 hours). For the same compound, the viability at 25 µM with UNC-10 HNSCC cells [1] (Homo sapiens, 48 hours, 25 μM Erlotinib) is 90%; with SCC-25 HNSCC cells (25 μM Erlotinib), 89%; in the assay on UNC-10 cells, 91%; in the assay on SCC-25 cells it was 89%. Also, the sphingolipid levels result in the assay with UNC-7 HNSCC cells and with UNC-10 HNSCC cells [2] was “able to alter sphingolipid levels” each time. For the same compound, in assay [3], the “effect of Erlotinib alone on cell viability” value is “failing to produce any meaningful effects”.
For `CNC(=O)c1ccc(N2C(=S)N(c3ccc(C#N)c(C(F)(F)F)c3)C(=O)C2(C)C)cc1F` [Enzalutamide], in the assay with LNCaP and C4-2 cells, the “reduction of viability as single treatment” value is “not as effective as a single treatment”.
As to `COc1cc2ncnc(Nc3ccc(F)c(Cl)c3)c2cc1OCCCN1CCOCC1` [Gefitinib], the effect on viability result with UNC-10 HNSCC cells [1] (Gefitinib at 5 μM or less, 24 hours or 48 hours) is “little effect”; with UNC-10 HNSCC cells [1] (Gefitinib higher concentrations (10, 25 μM), particularly at 24 hours), “reduced viability”. Moreover, in the assay on UNC-10 HNSCC cells [1] (Homo sapiens, 48 hours, 5 μM Gefitinib), the viability at 5 µM turned out to be 97%. Moreover, the “effect on viability compared with UNC-10” value with SCC-25 HNSCC cells (Gefitinib alone, 24 hours and 48 hours) is “less striking”. Moreover, in the assay on SCC-25 HNSCC cells (25 μM Gefitinib), the viability at 25 µM came out at 81%.
Turning to `CC(=O)O[C@H]1CC[C@@]2(C)C(=CC[C@@H]3[C@@H]2CC[C@]2(C)C(c4cccnc4)=CC[C@@H]32)C1` [abiraterone acetate], in the assay with LNCaP and C4-2 cells, the “reduction of viability as single treatment” value is on record as “effective in reducing the viabilities of PCa cells”. Besides, in the assay with LNCaP cells, the C6 ceramide levels entry was “not changed” and the total ceramide levels entry is recorded as “not changed”.
